Assay results taken from ChEMBL document CHEMBL1139672, “1,2,3,4-Tetrahydroisoquinolinyl sulfamic acids as phosphatase PTP1B inhibitors” (Bioorg Med Chem Lett, 2006).

What was measured:
[1] = target: Dual specificity protein phosphatase 3 (Homo sapiens, UniProt P51452); assay: Inhibition of VHR
[2] = Inhibition of STP1
[3] = target: T1, Receptor-type tyrosine-protein phosphatase C (Homo sapiens, UniProt P08575); assay: Inhibition of CD45
T1 sequence (P08575 whole entry): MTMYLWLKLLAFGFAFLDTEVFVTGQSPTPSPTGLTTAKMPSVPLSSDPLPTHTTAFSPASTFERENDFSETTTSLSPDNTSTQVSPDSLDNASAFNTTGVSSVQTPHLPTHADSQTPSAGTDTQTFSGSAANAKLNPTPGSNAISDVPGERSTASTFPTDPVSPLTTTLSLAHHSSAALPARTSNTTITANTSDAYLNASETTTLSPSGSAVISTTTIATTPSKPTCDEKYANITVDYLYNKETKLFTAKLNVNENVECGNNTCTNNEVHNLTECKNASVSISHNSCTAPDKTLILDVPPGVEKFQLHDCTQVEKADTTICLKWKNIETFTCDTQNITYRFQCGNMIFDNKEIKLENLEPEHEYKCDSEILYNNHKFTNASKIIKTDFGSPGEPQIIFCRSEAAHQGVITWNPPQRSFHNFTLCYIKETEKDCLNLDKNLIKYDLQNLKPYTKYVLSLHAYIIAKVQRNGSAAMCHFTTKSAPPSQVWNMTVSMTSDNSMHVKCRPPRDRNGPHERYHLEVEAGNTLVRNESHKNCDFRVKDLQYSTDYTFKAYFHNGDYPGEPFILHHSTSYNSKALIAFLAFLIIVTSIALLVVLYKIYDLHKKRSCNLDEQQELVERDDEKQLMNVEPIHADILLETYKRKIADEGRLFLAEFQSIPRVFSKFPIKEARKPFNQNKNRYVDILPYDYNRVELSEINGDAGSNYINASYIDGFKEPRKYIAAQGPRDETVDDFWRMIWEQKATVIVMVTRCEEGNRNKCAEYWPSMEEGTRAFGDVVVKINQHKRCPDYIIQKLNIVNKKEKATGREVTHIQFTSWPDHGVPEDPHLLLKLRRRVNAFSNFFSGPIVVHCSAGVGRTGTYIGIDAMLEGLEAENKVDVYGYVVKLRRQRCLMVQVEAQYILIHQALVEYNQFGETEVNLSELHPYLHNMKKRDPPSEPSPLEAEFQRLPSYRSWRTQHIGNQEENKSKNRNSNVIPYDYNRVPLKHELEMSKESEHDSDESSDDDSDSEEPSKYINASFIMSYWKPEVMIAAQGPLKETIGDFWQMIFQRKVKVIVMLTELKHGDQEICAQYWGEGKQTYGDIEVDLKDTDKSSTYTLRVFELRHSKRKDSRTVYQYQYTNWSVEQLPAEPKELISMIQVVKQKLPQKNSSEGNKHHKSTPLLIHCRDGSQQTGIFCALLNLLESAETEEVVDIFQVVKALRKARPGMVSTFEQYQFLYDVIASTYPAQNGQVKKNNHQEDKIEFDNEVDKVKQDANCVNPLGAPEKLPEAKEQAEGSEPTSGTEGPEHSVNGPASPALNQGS

[4] = target: Receptor-type tyrosine-protein phosphatase F (Homo sapiens, UniProt P10586); assay: Inhibition of LAR
Sequence of Receptor-type tyrosine-protein phosphatase F (P10586 whole entry): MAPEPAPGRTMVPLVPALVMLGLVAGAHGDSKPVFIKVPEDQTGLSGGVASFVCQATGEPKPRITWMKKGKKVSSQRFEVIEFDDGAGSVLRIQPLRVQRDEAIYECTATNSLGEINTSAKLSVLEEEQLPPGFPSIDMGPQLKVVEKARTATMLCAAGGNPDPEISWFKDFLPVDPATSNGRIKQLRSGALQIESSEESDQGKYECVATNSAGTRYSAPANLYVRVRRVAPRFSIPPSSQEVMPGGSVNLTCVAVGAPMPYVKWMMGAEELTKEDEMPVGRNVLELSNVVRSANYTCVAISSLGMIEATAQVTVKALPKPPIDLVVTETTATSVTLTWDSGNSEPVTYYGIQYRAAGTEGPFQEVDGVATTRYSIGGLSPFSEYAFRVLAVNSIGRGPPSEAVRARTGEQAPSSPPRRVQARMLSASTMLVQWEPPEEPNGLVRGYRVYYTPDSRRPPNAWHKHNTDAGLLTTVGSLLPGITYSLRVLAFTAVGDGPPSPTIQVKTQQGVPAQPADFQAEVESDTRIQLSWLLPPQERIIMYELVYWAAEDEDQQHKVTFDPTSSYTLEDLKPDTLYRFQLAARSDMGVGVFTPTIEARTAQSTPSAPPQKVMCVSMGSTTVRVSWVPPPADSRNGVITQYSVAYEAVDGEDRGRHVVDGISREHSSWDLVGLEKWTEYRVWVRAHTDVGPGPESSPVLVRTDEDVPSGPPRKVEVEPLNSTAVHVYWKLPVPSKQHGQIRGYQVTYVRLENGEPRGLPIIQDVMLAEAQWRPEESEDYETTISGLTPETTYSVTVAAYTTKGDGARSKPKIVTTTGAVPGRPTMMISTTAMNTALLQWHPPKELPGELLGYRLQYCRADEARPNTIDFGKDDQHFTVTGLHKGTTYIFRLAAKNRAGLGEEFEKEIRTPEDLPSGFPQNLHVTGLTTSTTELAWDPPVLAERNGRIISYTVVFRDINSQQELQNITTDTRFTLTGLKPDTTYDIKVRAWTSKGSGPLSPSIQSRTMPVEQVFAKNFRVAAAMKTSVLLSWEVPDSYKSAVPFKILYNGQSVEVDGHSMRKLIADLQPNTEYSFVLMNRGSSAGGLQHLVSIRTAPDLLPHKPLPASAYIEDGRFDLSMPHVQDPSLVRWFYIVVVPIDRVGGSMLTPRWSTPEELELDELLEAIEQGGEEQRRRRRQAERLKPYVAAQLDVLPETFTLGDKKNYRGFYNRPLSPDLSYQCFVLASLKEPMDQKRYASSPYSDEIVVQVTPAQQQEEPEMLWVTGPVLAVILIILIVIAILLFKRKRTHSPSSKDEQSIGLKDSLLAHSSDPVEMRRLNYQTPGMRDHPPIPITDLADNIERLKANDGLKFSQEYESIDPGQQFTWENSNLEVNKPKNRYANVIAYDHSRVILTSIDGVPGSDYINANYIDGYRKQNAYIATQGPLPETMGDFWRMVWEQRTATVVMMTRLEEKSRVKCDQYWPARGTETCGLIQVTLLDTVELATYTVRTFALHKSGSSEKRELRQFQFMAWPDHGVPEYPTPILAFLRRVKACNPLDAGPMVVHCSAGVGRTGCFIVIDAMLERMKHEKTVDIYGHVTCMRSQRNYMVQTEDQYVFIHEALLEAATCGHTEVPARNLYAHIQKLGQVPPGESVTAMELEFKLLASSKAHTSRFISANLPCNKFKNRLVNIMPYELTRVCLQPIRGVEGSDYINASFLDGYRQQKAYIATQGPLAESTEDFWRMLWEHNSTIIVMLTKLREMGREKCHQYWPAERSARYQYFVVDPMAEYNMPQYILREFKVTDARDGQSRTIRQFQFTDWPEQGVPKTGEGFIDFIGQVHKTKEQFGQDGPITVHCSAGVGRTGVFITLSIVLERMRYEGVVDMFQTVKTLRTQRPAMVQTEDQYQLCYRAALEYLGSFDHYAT

Sequence of Dual specificity protein phosphatase 3 (P51452 whole entry): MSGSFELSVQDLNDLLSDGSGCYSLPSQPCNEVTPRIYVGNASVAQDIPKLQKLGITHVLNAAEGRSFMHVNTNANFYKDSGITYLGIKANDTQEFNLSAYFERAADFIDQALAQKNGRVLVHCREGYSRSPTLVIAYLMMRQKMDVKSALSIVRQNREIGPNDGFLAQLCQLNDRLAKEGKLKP

With CNC(=O)[C@@H]1Cc2ccc(NS(=O)(=O)O)cc2CN1C(=O)CCc1cccc(NS(=O)(=O)O)c1 the IC50 [1] was 4 µM, the IC50 [2] was 8.1 µM and the IC50 [3] was greater than 500 µM. For the same compound, the IC50 [4] was greater than 500 µM.
